Read-outs that look alike come from different tables or passages of the source. Marks after values point to notes of the source that are not given here.
Key:
[1] = system: Tacaribe virus (TCRV), strain TRVL 11573
[2] = system: Junin virus (JUNV) vaccine strain Candid 1
[3] = system: Tacaribe virus (TCRV), strain TRVL 11573; remark: listed apart in the source
[4] = system: PTV, Adames strain
[5] = system: Tacaribe virus (TCRV), strain TRVL 11573; assay: microbe, parasite or virus in culture; settings: Mammarenavirus tacaribeense, Vero 76, read-out: EC90 ± SD (VYR)
[6] = in vitro; settings: monkey, CC50 ± SD
[7] = system: RVFV vaccine strain MP-12
[8] = system: PTV, Adames strain; set-up: species or system C57BL/6 mice; settings: mouse, in vivo
[9] = system: RVFV vaccine strain MP-12; assay: microbe, parasite or virus in culture; settings: Rift Valley fever virus, Vero 76, read-out: EC90 ± SD (VYR)
[10] = system: PICV, strain An 4763
[11] = system: Sandfly fever virus, Naples strain (SFNV); assay: microbe, parasite or virus in culture; settings: sandfly fever Sicilian virus, Vero 76, read-out: EC50 ± SD (CPER)
[12] = system: Junin virus (JUNV) vaccine strain Candid 1; assay: microbe, parasite or virus in culture; settings: Mammarenavirus juninense, Vero, read-out: EC90 ± SD (VYR)
[13] = system: Junin virus (JUNV) vaccine strain Candid 1; remark: listed apart in the source
[14] = system: Tacaribe virus (TCRV), strain TRVL 11573; assay: microbe, parasite or virus in culture; settings: Mammarenavirus tacaribeense, Vero 76, read-out: EC50 ± SD (CPER)
[15] = in vitro; settings: monkey, CC50 ± SD; remark: listed apart in the source
[16] = system: PICV, strain An 4763; assay: microbe, parasite or virus in culture; settings: Pichinde virus, Vero, read-out: EC90 ± SD (VYR)
[17] = system: Sandfly fever virus, Naples strain (SFNV)
[18] = system: Junin virus (JUNV) vaccine strain Candid 1; assay: microbe, parasite or virus in culture; settings: Mammarenavirus juninense, Vero, read-out: EC50 ± SD (CPER)
[19] = system: Vero cells; settings: monkey
[20] = system: PICV, strain An 4763; remark: listed apart in the source
[21] = system: Sandfly fever virus, Naples strain (SFNV); remark: listed apart in the source
[22] = system: PTV, Adames strain; remark: listed apart in the source
[23] = system: PTV, Adames strain; assay: microbe, parasite or virus in culture; settings: Punta Toro virus, Vero 76, read-out: EC90 ± SD (VYR)
[24] = system: RVFV vaccine strain MP-12; remark: listed apart in the source
[25] = system: PTV, Adames strain; set-up: species or system Syrian hamsters; settings: hamster, in vivo
[26] = system: PICV, strain An 4763; type: in vivo, Syrian hamsters
[27] = system: RVFV vaccine strain MP-12; assay: microbe, parasite or virus in culture; settings: Rift Valley fever virus, Vero 76, read-out: EC50 ± SD (CPER)
[28] = system: PTV, Adames strain; assay: microbe, parasite or virus in culture; settings: Punta Toro virus, Vero 76, read-out: EC50 ± SD (CPER)
[29] = system: Sandfly fever virus, Naples strain (SFNV); assay: microbe, parasite or virus in culture; settings: sandfly fever Sicilian virus, Vero 76, read-out: EC90 ± SD (VYR)
[30] = system: PICV, strain An 4763; assay: microbe, parasite or virus in culture; settings: Pichinde virus, Vero, read-out: EC50 ± SD (CPER)
[31] = system: phleboviruses (RVFV, PTV, SFNV); assay: organism not typed; type: cell-based
[32] = hamster, in vivo, po, 25 mg/kg/day
[33] = hamster, in vivo, po, 50 mg/kg/day
[34] = hamster, in vivo, po, 100 mg/kg/day

NC(=O)c1nc(F)cnc1O [T-705, 6-fluoro-3-hydroxy-2-pyrazinecarboxamide]
SI (CC50/EC90) [1]: >405
SI (CC50/EC90) [2]: >387
SI (CC50/EC50) [3]: >187
SI (CC50/EC50) [4]: >68
EC90 [5]: 12 ± 4 µM
CC50 [6]: > 5410 µM
SI (CC50/EC90) [7]: >530
ED50 (survival) [8]: 159 µmol/kg/day
EC90 [9]: 12 ± 4 µM
SI (CC50/EC50) [10]: 194
EC50 [11]: 30 ± 15 µM
EC90 [12]: 14 ± 3 µM
SI (CC50/EC50) [13]: >285
EC50 [14]: 26 ± 13 µM
CC50 [15]: > 6360 µM
EC90 [16]: 24 ± 5 µM
SI (CC50/EC90) [17]: 1952
EC50 [18]: 19 ± 5 µM
CC50 [19]: 4860 ± 409 µM
SI (CC50/EC90) [20]: 202
SI (CC50/EC50) [21]: 195
SI (CC50/EC90) [22]: >197
EC90 [23]: 19 ± 11 µM
SI (CC50/EC50) [24]: >236
ED50 (survival) [25]: 112 µmol/kg/day
Mean virus titer ± SD, liver [25]: < 3.9 ± 1.5 (40)
Survival compared to placebo [25]: significant protection
ALT ± SD ([25]; po, 25 mg/kg/day): 820 ± 1148 international units per liter
Mean virus titer ± SD, liver ([25]; po, 25 mg/kg/day): < 5.9 ± 1.8 (80)
Mean virus titer ± SD, serum ([25]; po, 25 mg/kg/day): < 5.4 ± 3.4 (60)
Percentage of animals with detectable virus, liver ([25]; po, 25 mg/kg/day): < 5.9 ± 1.8 (80) %
Percentage of animals with detectable virus, serum ([25]; po, 25 mg/kg/day): < 5.4 ± 3.4 (60) %
ALT ± SD ([25]; po, 50 mg/kg/day): 52 ± 79 international units per liter
Mean virus titer ± SD, liver ([25]; po, 50 mg/kg/day): < 3.6 ± 1.7 (40)
Percentage of animals with detectable virus, liver ([25]; po, 50 mg/kg/day): < 3.6 ± 1.7 (40) %
ALT ± SD ([25]; po, 100 mg/kg/day): 38 ± 19 international units per liter
Mean virus titer ± SD, serum ([25]; po, 100 mg/kg/day): < 3.1 ± 1.9 (40)
Percentage of animals with detectable virus, liver ([25]; po, 100 mg/kg/day): < 3.9 ± 1.5 (40) %
Percentage of animals with detectable virus, serum ([25]; po, 100 mg/kg/day): < 3.1 ± 1.9 (40) %
Potency relative to T-1106 based on ALT molar dose response ([26]; hamster, in vivo): 2.6 fold
Potency relative to T-1106 based on ED50 ([26]; hamster, in vivo): 6.1 times
Survival compared to placebo ([26]; hamster, in vivo): significantly protected
ED50 (survival) ([26]; hamster, in vivo, po): 72 µmol/kg/day
ALT ± SD [26, 32]: 859 ± 782 international units per liter
Mean virus titer ± SD, liver [26, 32]: 7.6 ± 0.8 (100)
Mean virus titer ± SD, serum [26, 32]: 6.6 ± 1.0 (100)
Percentage of animals with detectable virus, liver [26, 32]: 7.6 ± 0.8 (100) %
Percentage of animals with detectable virus, serum [26, 32]: 6.6 ± 1.0 (100) %
Mean virus titer ± SD, liver [26, 33]: 5.8 ± 1.1 (100)
Mean virus titer ± SD, serum [26, 33]: < 3.8 ± 1.6 (80)
Percentage of animals with detectable virus, liver [26, 33]: 5.8 ± 1.1 (100) %
Percentage of animals with detectable virus, serum [26, 33]: < 3.8 ± 1.6 (80) %
Mean virus titer ± SD, liver [26, 34]: < 3.3 ± 0.5 (60)
Mean virus titer ± SD, serum [26, 34]: < 1.8 (0) ^**
Percentage of animals with detectable virus, liver [26, 34]: < 3.3 ± 0.5 (60) %
Percentage of animals with detectable virus, serum [26, 34]: < 1.8 (0) ^** %
Survival outcome ([26]; n=10): complete protection
Animals protected (survival) ([26]; n=10, 25 mg/kg/day): 70%
Animals protected (survival) ([26]; n=10, 50 mg/kg/day): 80%
EC50 [27]: 27 ± 5 µM
EC50 [28]: 55 ± 35 µM
EC90 [29]: 3 ± 1 µM
EC50 [30]: 25 ± 6 µM
Inhibitory concentrations, range [31]: 3 to 55 µM
EC50 ([31]; read-out: EC50 values, range (CPE reduction assay)): 27 to 55 µM
EC90 ([31]; read-out: EC90 values, range (VYR)): 3 to 19 µM
